Data published in patent publication US7271260B2, “3,4-dihydroquinazoline derivatives as T-type calcium channel blockers and method of preparing the same” (Korea Institute of Science and Technology, priority 2004, dated 2007).
Where two headings read alike, the source gives them in different places.

Columns and labels:
[1] = test system: N-type (HVA) Ca2+ channel; assay: Patch clamp of high voltage-activated calcium current in MPG (major pelvic ganglion) neurons; format: cell-based, rat; settings: 10 μM; for selectivity for the sub-types of the calcium channel (T-type LVA vs N-type HVA): from Table 3; for Inhibitory effect, Ca2+ channel N-type (HVA): MPG neuron, n.i. = no inhibitory effect
Experimental: (§1) In order to examine the selectivity of the compound of the present invention for other ion channels, the inhibitory effects of KYS05001, KYS05041 and KYS05042 on […] and high voltage-activated Ca2+ channel (HVA) were measured according to a conventional method (Lee, J.-H. et al., J. Neurophysiol. 2002, 87, 2844-2850) using MPG (major pelvic ganglion).
(§2) Male Sprague-Dawley rats having about 250 g of an average body weight were employed as experimental animals. After the rats were anesthetized with sodium pentobarbital (50 mg/kg, i.p.), the abdomen was cut open immediately. MPG located on the left side of the prostate was extracted and then transferred in cold (4° C.) Hank's balanced salt solution (HBSS, GibcoBRL). The connective tissue encompassing the ganglion was stripped therefrom and a small gap was made carefully on the naked ganglion with a sharp knife. Then, the ganglion was cultured in 10 ml of modified Earle's balanced salt solution (EBSS, pH 7.4, GibcoBRL) supplemented with 0.7 mg/ml of collagenase (type D), 0.3 mg/ml of trypsin and 0.1 mg/ml of DNAse type I at 35° C. for 1 hour (Zhu et al., J. Physiol. Lond. 1995, 489, 363-375). At this time, 3.6 g/l of glucose and 10 mM HEPES were added to EBSS. After the cultivation was completed, the culture flask was shaken to separate call clusters into a single nerve cell and subjected to centrifugation at 1000 rpm with a clinical centrifuge (International Equipment Company, Mass., U.S.A.). The separated single nerve cells were re-suspended in MEM (GibcoBRL) supplemented with 10% fetal bovine serum, 1% glutamine and 1% penicillin/streptomycin. They were then spread on a polystyrene culture dish (35 mm) coated with poly-L-lysine. The culture dish was incubated at 37° C. humidified incubator (95% air-5% CO2) and the cells were used in the following experiment within 24 hours after the separation.
(§3) The voltage-dependent calcium and sodium current were recorded according to a typical patch clamping method using a patch clamp amplifier (Axopatch 1D, Axon Instruments, Foster City, Calif., U.S.A.) at a whole-cell ruptured configuration (Hamill et al., Pflügers Arch. 1981, 391, 85-100). An electrode was made from a borosilicate glass capillary tube (outer diameter; 1.65 mm, inner diameter; 1.2 mm, Corning 7052, Garner Glass Co., Claremont, Calif., U.S.A.) using P-97 Flaming-Brown micropipette puller (Sutter Instrument Co., Novato, Calif., U.S.A.) and forged smoothly by heating with a microforge. The electrode showing 1˜3 MΩ of resistance when filled with a solution was used for the following experiment. The culture dish containing the nerve cells was placed on an inverted microscope and the cell exterior solution was flowed into the dish at a flow rate of about 1˜2 ml/min. The membrane capacitance and series resistance were corrected by 80% or more with an amplifier. The voltage generation and record of calcium current were carried out using S4 software (provided by Dr. Stephen R. Ikeda, National Institute on Alcohol Abuse and Alcoholism, NIH, USA) equipped in Macintosh computer, which was connected to an analogue/digital converter (Digidata 1200, Axon Instruments Co.). The calcium current, which passed through a low band pass filter at 2˜5 kHz, was stored in Macintosh computer and analyzed with IGOR PRO (Wave-Metrics, Lake Oswego, Oreg., U.S.A.). All the experiments were conducted at a room temperature ranging from 20 to 22° C.
(§4) The electrode for measuring the calcium current was filled with the solution comprising 120 mM N-methyl-D-glucamine (NMG) methanesulfonate (MS), 20 mM tetraethylammonium (TEA)-MS, 20 mM HCl, 11 mM EGTA, 10 mM HEPES, 1 mM CaCl2, 4 mM MgATP, 0.3 mM Na2GTP and 14 mM tris-phosphocreatine (pH 7.2, 290 mOsm). The extracellular infusion fluid was composed of 140 mM MS, 145 mM TEA-OH, 10 mM HEPES, 15 mM glucose, 10 mM CaCl2 and 0.0003 mM tetrodotoxin (TTX, pH 7.4, 320 mOsm). […]

[2] = test system: Na+ channel; assay: Patch clamp of sodium current in MPG (major pelvic ganglion) neurons; format: cell-based, rat; settings: MPG neuron, 10 μM; for selectivity for the calcium channel versus the sodium channel: from Table 3; for Inhibitory effect, Na+ channel: n.i. = no inhibitory effect
Experimental: as §1, §2, §3, §4

[3] = target: T1, α1G T-type calcium channel (Rattus norvegicus, UniProt O54898); assay: Whole cell patch clamp on HEK 293 cells expressing α1G T-type calcium channel; format: cell-based; settings: for inhibition at 10 µM: HEK293; for channel inhibitory effect relative to Mibefradil (comparing IC50 values): HEK 293 cells (α1G), IC50 compared with Mibefradil; for IC50: read-out: IC50, HEK293 cells (α1G)
T1 construct: expressed in transfected cells; Perez-Reyes, University of Virginia
Experimental: HEK 293 cells were cultured in Dulbecco's modified Eagle's medium (DMEM) supplemented with 10% fetal bovine serum (FBS) and 1% penicillin/streptomycin (v/v) in 36.5° C. humidified incubator (95% air-5% CO2). The culture solution was replaced with a fresh medium every 3 to 4 days and the cultured cells were subjected to sub-culture every week. At this time, the culture solution was treated with G-418 (0.5 mg/ml) solution so that only HEK 293 cells expressing α1G T-type calcium channel can grow. The cells used for the T-type calcium channel activity assay were cultured on a cover slip coated with poly-L-lysine (0.5 mg/ml) whenever sub-cultured and their calcium channel activity was recorded 2 to 7 days after the cultivation. The current of the T-type calcium channel at a single cell level was measured according to an electrophysiological whole cell patch clamping method using EPC-9 amplifier (HEKA, German). At this time, a cell exterior solution [140 mM NaCl, 2 mM CaCl2, 10 mM HEPES (pH 7.4)] and a cell interior solution [KCl 130 mM, HEPES 10 mM, EGTA 11 mM, MgATP 5 mM (pH 7.4)] were employed. The inward current caused by the T-type calcium channel activation was measured according to a T-type calcium channel protocol activated at low current. Such current occurs when the cells were converted into a whole-cell recording mode by stabbing a microglass electrode having 3-4 MΩ resistance, which was filled with the cell interior solution into a single cell and depolarized at −30 mV (50 ms duration period) every 10 seconds with fixing membrane potential to −100 mV.
In order to confirm whether the cells and methods used in Test Example 2 are a suitable screening system for selecting T-type calcium channel blockers, the results obtained in Example 2 were compared with those of α1G T-type calcium channel study reported in a public document (Monteil, A. et al., J. Biol. Chem. 275, 6090-6100, 2000). […] Thus, the candidate compounds were subjected to a test for their inhibitory effects on the T-type calcium channel according to the screening system of the present invention, as follows. Each compound was dissolved in 100% dimethylsulfoxide (DMSO) to prepare 10 mM stock solution. The inhibitory effect on the T-type calcium channel current was examined in 10 μM sample solution (containing 0.1% DMSO) prepared by diluting the stock solution by 1000-fold. The cells were treated with each compound at a concentration of 10 μM for 30 to 60 sec with the cell exterior solution.

[4] = HEK 293 cells expressing α1G, 30 to 60 sec treatment, read-out: inhibitory effect on peak current, HEK293 cells (α1G) at 10 μM
[5] = Table 3 title says MPG neuron, values equal HEK 293 (α1G) values of Table 2, read-out: Inhibitory effect, Ca2+ channel T-type (LVA)

T1 sequence (O54898 whole entry): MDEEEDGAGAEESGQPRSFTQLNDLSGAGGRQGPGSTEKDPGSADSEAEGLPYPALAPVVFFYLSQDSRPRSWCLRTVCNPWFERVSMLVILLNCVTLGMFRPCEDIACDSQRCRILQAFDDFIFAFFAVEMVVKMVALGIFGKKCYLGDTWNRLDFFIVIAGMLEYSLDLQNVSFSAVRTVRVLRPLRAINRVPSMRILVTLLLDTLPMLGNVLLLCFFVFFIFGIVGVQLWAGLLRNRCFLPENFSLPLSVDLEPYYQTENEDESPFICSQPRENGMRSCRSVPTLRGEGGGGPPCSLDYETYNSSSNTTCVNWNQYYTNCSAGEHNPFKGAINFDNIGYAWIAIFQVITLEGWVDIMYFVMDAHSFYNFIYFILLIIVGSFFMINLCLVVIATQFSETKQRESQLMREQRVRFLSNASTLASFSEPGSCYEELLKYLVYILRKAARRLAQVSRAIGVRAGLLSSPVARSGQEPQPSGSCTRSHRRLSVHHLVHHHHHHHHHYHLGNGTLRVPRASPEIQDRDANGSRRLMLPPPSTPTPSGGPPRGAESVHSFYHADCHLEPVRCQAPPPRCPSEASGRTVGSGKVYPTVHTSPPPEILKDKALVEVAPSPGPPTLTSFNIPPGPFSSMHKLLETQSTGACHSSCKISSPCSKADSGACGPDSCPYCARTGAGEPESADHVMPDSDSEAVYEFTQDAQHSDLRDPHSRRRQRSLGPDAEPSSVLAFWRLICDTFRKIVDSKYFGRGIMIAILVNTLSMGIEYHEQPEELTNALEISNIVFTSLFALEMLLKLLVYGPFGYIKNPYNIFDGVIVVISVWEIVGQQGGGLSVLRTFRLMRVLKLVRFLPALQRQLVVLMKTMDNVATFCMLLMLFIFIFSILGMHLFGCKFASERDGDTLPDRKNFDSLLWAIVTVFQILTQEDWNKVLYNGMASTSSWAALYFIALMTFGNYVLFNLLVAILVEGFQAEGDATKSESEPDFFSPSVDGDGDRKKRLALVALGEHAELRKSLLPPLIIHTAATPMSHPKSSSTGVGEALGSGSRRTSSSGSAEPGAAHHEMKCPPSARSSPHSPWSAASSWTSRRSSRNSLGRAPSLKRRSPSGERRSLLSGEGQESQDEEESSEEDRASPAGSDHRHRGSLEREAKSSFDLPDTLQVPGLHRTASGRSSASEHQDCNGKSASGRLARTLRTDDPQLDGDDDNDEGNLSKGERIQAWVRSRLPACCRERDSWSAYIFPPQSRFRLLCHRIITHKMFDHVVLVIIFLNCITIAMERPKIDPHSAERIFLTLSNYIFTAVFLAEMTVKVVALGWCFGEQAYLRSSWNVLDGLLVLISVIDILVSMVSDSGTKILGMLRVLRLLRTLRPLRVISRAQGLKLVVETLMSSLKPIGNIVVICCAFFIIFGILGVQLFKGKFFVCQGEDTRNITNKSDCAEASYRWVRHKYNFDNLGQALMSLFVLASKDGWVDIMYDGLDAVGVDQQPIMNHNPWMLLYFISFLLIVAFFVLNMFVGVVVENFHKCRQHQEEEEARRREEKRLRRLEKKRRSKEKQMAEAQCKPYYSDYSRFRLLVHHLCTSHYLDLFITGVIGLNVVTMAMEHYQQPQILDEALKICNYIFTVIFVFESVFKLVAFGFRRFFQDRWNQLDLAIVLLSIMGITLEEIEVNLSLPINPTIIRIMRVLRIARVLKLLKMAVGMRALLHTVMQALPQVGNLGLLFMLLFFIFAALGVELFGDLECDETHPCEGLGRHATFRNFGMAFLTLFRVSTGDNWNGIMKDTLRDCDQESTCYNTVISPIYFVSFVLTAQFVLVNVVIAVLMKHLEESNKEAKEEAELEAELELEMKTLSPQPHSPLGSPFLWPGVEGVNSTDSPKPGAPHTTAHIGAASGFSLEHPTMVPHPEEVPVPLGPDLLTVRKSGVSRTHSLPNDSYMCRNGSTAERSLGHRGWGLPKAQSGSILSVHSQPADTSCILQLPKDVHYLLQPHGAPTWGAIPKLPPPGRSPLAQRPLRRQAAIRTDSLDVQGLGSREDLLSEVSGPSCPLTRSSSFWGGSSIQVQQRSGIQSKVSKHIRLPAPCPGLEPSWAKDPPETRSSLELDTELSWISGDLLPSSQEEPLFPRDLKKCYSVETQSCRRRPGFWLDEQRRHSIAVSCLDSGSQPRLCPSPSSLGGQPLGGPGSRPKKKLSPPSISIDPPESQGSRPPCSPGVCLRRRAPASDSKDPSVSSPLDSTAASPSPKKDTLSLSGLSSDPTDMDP

Structure (SMILES)	selectivity for the sub-types of the calcium channel (T-type LVA vs N-type HVA) [1]	Inhibitory effect, Ca2+ channel N-type (HVA) [1]	selectivity for the calcium channel versus the sodium channel [2]	Inhibitory effect, Na+ channel [2]	inhibition at 10 µM [3, 4] [%]	inhibition at 10 µM [3, 5] [%]	channel inhibitory effect relative to Mibefradil (comparing IC50 values) [3]	IC50 ([3]; HEK 293 cells expressing α1G) [nM]
Cc1ccc(S(=O)(=O)Nc2ccc(CNC(=O)CC3c4ccccc4N=C(N4CCCCC4)N3c3ccccc3)cc2)cc1 (stereo not drawn) [KYS05041, 4-{N-[4-(4-methylbenzenesulfonylamido)benzyl]acetamido}-3-phenyl-2-(piperidine-1-yl)-3,4-dihydroquinazoline]	relatively lower selectivity	>89%	higher selectivity for the calcium channel than the sodium channel	n.i.^b	89.9	89.9	about 3.4 fold	250
O=C(CC1c2ccccc2N=C(N2CCCCC2)N1c1ccccc1)NCc1ccc(NS(=O)(=O)c2ccc(F)cc2)cc1 (stereo not drawn) [KYS05042, 4-{N-[4-(4-fluorobenzenesulfonylamido)benzyl]acetamido}-3-phenyl-2-(piperidine-1-yl)-3,4-dihydroquinazoline]	relatively lower selectivity	>90%	higher selectivity for the calcium channel than the sodium channel	n.i.^b	89	89	~4.2 fold	200
O=C(CC1c2ccccc2N=C(N2CCCCC2)N1c1ccccc1)NCc1ccccc1 (stereo not drawn) [KYS05001]	selectively inhibited only the T-type (LVA) calcium channel	n.i.^b	higher selectivity for the calcium channel than the sodium channel	n.i.^b	90.1	90.1	almost the same calcium channel inhibitory effect as Mibefradil	900
